Experimental data published in PubChem BioAssay AID248 (DTP/NCI, 2004).
Several values for one entry are separate records, joined by “and”; a condition that tells them apart may be missing. Identical values can stand only once. Inconclusive results and toxic doses are left out. Rule as the data show it: active = T/C of 150% or more; inactive = T/C below 125%.

System: L1210 leukemia ip in BDF1 mice, survival T/C
Assay: NCI In Vivo Anticancer Drug Screen. Data for tumor model L1210 Leukemia (intraperitoneal) in B6D2F1 (BDF1) mice
Conditions: endpoint: mean survival time, higher = longer survival
Method in brief: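 Value reflects the ratio of survival in compound-treated mice to survival in vehicle-treated controls, with both groups carrying the same transplanted tumor.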

[1] = dose: 100.0 mg/kg/injection, schedule: Q01DX001 (ip), vehicle: saline
[2] = dose: 200.0 mg/kg/injection, schedule: Q01DX001 (ip), vehicle: saline
[3] = dose: 400.0 mg/kg/injection, schedule: Q01DX001 (ip), vehicle: saline
[4] = dose: 100.0 mg/kg/injection, schedule: Q04DX003 (ip), vehicle: saline with Tween-80
[5] = dose: 200.0 mg/kg/injection, schedule: Q04DX003 (ip), vehicle: saline with Tween-80
[6] = dose: 400.0 mg/kg/injection, schedule: Q04DX003 (ip), vehicle: saline with Tween-80
[7] = dose: 10.0 mg/kg/injection, schedule: Q01DX001 (ip), vehicle: saline
[8] = dose: 20.0 mg/kg/injection, schedule: Q01DX009 (ip), vehicle: saline
[9] = dose: 40.0 mg/kg/injection, schedule: Q01DX009 (ip), vehicle: saline
[10] = dose: 100.0 mg/kg/injection, schedule: Q04DX002 (ip), vehicle: Klucel (hydroxypropylcellulose) (HPC)
[11] = dose: 200.0 mg/kg/injection, schedule: Q04DX002 (ip), vehicle: Klucel (hydroxypropylcellulose) (HPC)
[12] = dose: 400.0 mg/kg/injection, schedule: Q04DX002 (ip), vehicle: Klucel (hydroxypropylcellulose) (HPC)
[13] = dose: 100.0 mg/kg/injection, schedule: Q04DX003 (ip), vehicle: Klucel (hydroxypropylcellulose) (HPC)
[14] = dose: 200.0 mg/kg/injection, schedule: Q04DX003 (ip), vehicle: Klucel (hydroxypropylcellulose) (HPC)
[15] = dose: 400.0 mg/kg/injection, schedule: Q04DX003 (ip), vehicle: Klucel (hydroxypropylcellulose) (HPC)
[16] = dose: 100.0 mg/kg/injection, schedule: Q01DX001 (ip), vehicle: carboxymethylcellulose (CMC)
[17] = dose: 100.0 mg/kg/injection, schedule: Q01DX009 (ip), vehicle: Klucel (hydroxypropylcellulose) (HPC)
[18] = dose: 200.0 mg/kg/injection, schedule: Q01DX009 (ip), vehicle: Klucel (hydroxypropylcellulose) (HPC)
[19] = dose: 400.0 mg/kg/injection, schedule: Q01DX009 (ip), vehicle: Klucel (hydroxypropylcellulose) (HPC)
[20] = dose: 25.0 mg/kg/injection, schedule: Q04DX003 (ip), vehicle: Klucel (hydroxypropylcellulose) (HPC)

Measured: T/C

CC1COCCCCCC(=O)C1 (stereo not given)
inactive: [1] 91 % of control | [2] 107 % of control | [3] 107 % of control

ClC(Cl)(Cl)c1ccc(C(SCc2ccccc2)SCc2ccccc2)cc1
inactive: [4] 86 % of control | [5] 89 % of control | [6] 86 % of control

CCC1CCN(CC)CC1
inactive: [7] 101 % of control | dose: 10.0 mg/kg/injection, schedule: Q01DX009 (ip), vehicle: saline 92 % of control and 102 % of control | dose: 10.0 mg/kg/injection, schedule: Q04DX002 (ip), vehicle: saline 100 % of control and 109 % of control | dose: 10.0 mg/kg/injection, schedule: Q04DX003 (ip), vehicle: saline 102 % of control | dose: 20.0 mg/kg/injection, schedule: Q01DX001 (ip), vehicle: saline 101 % of control | [8] 101 % of control and 108 % of control | dose: 20.0 mg/kg/injection, schedule: Q04DX002 (ip), vehicle: saline 100 % of control and 117 % of control | dose: 20.0 mg/kg/injection, schedule: Q04DX003 (ip), vehicle: saline 103 % of control | dose: 40.0 mg/kg/injection, schedule: Q01DX001 (ip), vehicle: saline 95 % of control | [9] 94 % of control | dose: 40.0 mg/kg/injection, schedule: Q04DX002 (ip), vehicle: saline 94 % of control and 102 % of control | dose: 40.0 mg/kg/injection, schedule: Q04DX003 (ip), vehicle: saline 102 % of control

CCC(=O)Nc1ccccc1C
inactive: [10] 92 % of control | [11] 103 % of control | [12] 110 % of control

CC(=O)NOCc1ccc(Cl)cc1
inactive: [13] 100 % of control | [14] 95 % of control | [15] 95 % of control

Cc1cc[c]([Hg][c]2ccc(C)cc2)cc1
inactive: [13] 97 % of control | [14] 103 % of control | [15] 94 % of control

O=C1CC(c2ccccc2)C2(c3ccccc3)OC12 (stereo not given)
inactive: dose: 100.0 mg/kg/injection, schedule: Q01DX001 (ip), vehicle: saline with Tween-80 101 % of control | dose: 200.0 mg/kg/injection, schedule: Q01DX001 (ip), vehicle: saline with Tween-80 94 % of control | dose: 400.0 mg/kg/injection, schedule: Q01DX001 (ip), vehicle: saline with Tween-80 111 % of control

CC(C)CCCC(=O)O
inactive: [1] 97 % of control | [2] 100 % of control | [3] 89 % of control

O=NN(CC(F)(F)F)C(=O)NCC(F)(F)F
inactive: dose: 8.0 mg/kg/injection, schedule: Q01DX001 (ip), vehicle: carboxymethylcellulose (CMC) 113 % of control | dose: 16.0 mg/kg/injection, schedule: Q01DX001 (ip), vehicle: carboxymethylcellulose (CMC) 113 % of control | dose: 31.0 mg/kg/injection, schedule: Q01DX001 (ip), vehicle: carboxymethylcellulose (CMC) 113 % of control | dose: 62.0 mg/kg/injection, schedule: Q01DX001 (ip), vehicle: carboxymethylcellulose (CMC) 113 % of control | dose: 125.0 mg/kg/injection, schedule: Q01DX001 (ip), vehicle: carboxymethylcellulose (CMC) 113 % of control | dose: 187.0 mg/kg/injection, schedule: Q01DX001 (ip), vehicle: carboxymethylcellulose (CMC) 112 % of control | dose: 250.0 mg/kg/injection, schedule: Q01DX001 (ip), vehicle: carboxymethylcellulose (CMC) 107 % of control | dose: 375.0 mg/kg/injection, schedule: Q01DX001 (ip), vehicle: carboxymethylcellulose (CMC) 113 % of control | dose: 500.0 mg/kg/injection, schedule: Q01DX001 (ip), vehicle: carboxymethylcellulose (CMC) 118 % of control

CCOC(=O)Nc1cc(Cl)c2n[nH]nc2n1
inactive: dose: 25.0 mg/kg/injection, schedule: Q01DX005 (ip), vehicle: saline 105 % of control | dose: 50.0 mg/kg/injection, schedule: Q01DX005 (ip), vehicle: saline 113 % of control | dose: 100.0 mg/kg/injection, schedule: Q01DX005 (ip), vehicle: saline 110 % of control

CCOC(=O)c1c(C)c2c(n1C)CCC(CCC(C)=O)C2=O (stereo not given)
inactive: [16] 104 % of control | dose: 200.0 mg/kg/injection, schedule: Q01DX001 (ip), vehicle: carboxymethylcellulose (CMC) 97 % of control | dose: 400.0 mg/kg/injection, schedule: Q01DX001 (ip), vehicle: carboxymethylcellulose (CMC) 93 % of control

CCC(CO)NC1CCCCC1 (stereo not given)
inactive: dose: 75.0 mg/kg/injection, schedule: Q01DX001 (ip), vehicle: carboxymethylcellulose (CMC) 88 % of control

CN1c2ccccc2C=C(C(=O)c2ccccc2)C1c1ccccc1 (stereo not given)
inactive: dose: 50.0 mg/kg/injection, schedule: Q01DX001 (ip), vehicle: saline 100 % of control | [1] 102 % of control | [2] 97 % of control

CCOC(=O)NS(=O)(=O)c1ccccc1
inactive: [17] 100 % of control | [18] 101 % of control | [19] 87 % of control

CN(CN(C)NC(=O)c1ccccc1)NC(=O)c1ccccc1
inactive: [16] 98 % of control

Cc1ccc(NCS(=O)(=O)O)cc1
inactive: [20] 106 % of control | dose: 50.0 mg/kg/injection, schedule: Q04DX003 (ip), vehicle: Klucel (hydroxypropylcellulose) (HPC) 103 % of control | [13] 95 % of control and 96 % of control | [14] 100 % of control | [15] 97 % of control

O=C(N/N=C(\C=N\NC(=O)c1ccccc1)CC(O)C(O)CO)c1ccccc1 (stereo not given)
inactive: [13] 91 % of control | [14] 96 % of control | [15] 93 % of control

O=S1(=O)CC2=C1/C=C/CCCC2
inactive: dose: 5.0 mg/kg/injection, schedule: Q04DX002 (ip), vehicle: Klucel (hydroxypropylcellulose) (HPC) 90 % of control | [7] 102 % of control | dose: 10.0 mg/kg/injection, schedule: Q04DX002 (ip), vehicle: Klucel (hydroxypropylcellulose) (HPC) 96 % of control

CC(C)(C)C1(C)CN(N=O)C(=O)O1 (stereo not given)
inactive: dose: 12.5 mg/kg/injection, schedule: Q04DX003 (ip), vehicle: Klucel (hydroxypropylcellulose) (HPC) 114 % of control | [20] 104 % of control

O=C(Cc1ccccc1)O/C=C1/CCOC1=O
inactive: [10] 91 % of control | [11] 91 % of control | [12] 94 % of control

O=C(Nc1ccc(CCO)cc1)Nc1cccc(Cl)c1Cl
inactive: [17] 91 % of control | [18] 91 % of control | [19] 100 % of control

COC(=O)C1C(O)C(C)C(O)C(C)C=C(C)C2=C3C(=C(C)C(=O)c4c(O)c(c(C)c(OC(C)=O)c43)NC(=O)C(C)=C/C=C\C(C)C(O)C(C)C1O)OCO2 (stereo not given)
inactive: [8] 105 % of control | [9] 100 % of control | dose: 80.0 mg/kg/injection, schedule: Q01DX009 (ip), vehicle: saline 102 % of control | [10] 96 % of control | dose: 160.0 mg/kg/injection, schedule: Q01DX009 (ip), vehicle: saline 107 % of control | [11] 90 % of control

CN(C(=O)c1cccnc1)c1ccccc1
inactive: [4] 94 % of control | [5] 96 % of control | [6] 107 % of control

Cc1cccc2c1N=C(C(F)(F)F)CC2=O
inactive: dose: 75.0 mg/kg/injection, schedule: Q01DX001 (ip), vehicle: other 100 % of control | dose: 150.0 mg/kg/injection, schedule: Q01DX001 (ip), vehicle: other 96 % of control | dose: 300.0 mg/kg/injection, schedule: Q01DX001 (ip), vehicle: other 97 % of control

COC1CCC(/C(C#N)=C/C2CCC(NC(C)=O)CC2)CC1 (stereo not given)
inactive: dose: 100.0 mg/kg/injection, schedule: Q04DX002 (ip), vehicle: saline with Tween-80 101 % of control | dose: 200.0 mg/kg/injection, schedule: Q04DX002 (ip), vehicle: saline with Tween-80 105 % of control | dose: 400.0 mg/kg/injection, schedule: Q04DX002 (ip), vehicle: saline with Tween-80 94 % of control

CCS(=O)(=O)/C=C/c1ccco1
inactive: dose: 12.5 mg/kg/injection, schedule: Q04DX003 (ip), vehicle: carboxymethylcellulose (CMC) 98 % of control | dose: 25.0 mg/kg/injection, schedule: Q04DX003 (ip), vehicle: carboxymethylcellulose (CMC) 95 % of control

CC(=O)Nc1ccc(S(=O)(=O)Nc2cc(C)ns2)cc1
inactive: dose: 100.0 mg/kg/injection, schedule: Q04DX003 (ip), vehicle: saline 92 % of control | dose: 200.0 mg/kg/injection, schedule: Q04DX003 (ip), vehicle: saline 96 % of control | dose: 400.0 mg/kg/injection, schedule: Q04DX003 (ip), vehicle: saline 100 % of control
